Series [1] has as its system canonical Wnt-β catenin signaling. As to the kind of experiment: TCF/LEF luciferase reporter assay in HEK293 cells. Format: cell-based. The following applies: 10 mM, 24 h, positive control. Here is the method: LiCl (10 mM) treatment was used as positive control for luciferase activity. Luciferase activity was determined after 24 h using a Dual-Luciferase® Reporter Assay System (Promega) as per manufacturer's protocol. HEK293 cells containing a FOPFlash construct were used as a negative control.

For series [2], the system named is radiation dermatitis (erythema, edema). Briefly: Draize scoring of dermal radiation sites, dermal dosing 10 mg/mL Day 0 to 6. Format: in vivo. The following applies: Avg of Days 1-6 and 8.
A short description of series [3]: Solubility of BCN057 in aqueous formulations. Format: physicochemical. Here is the method:
Several formulations were developed to solubilize BCN057 in aqueous solution at physiologically compatible pHs. These include 100 mM methanesulfonic acid/10% povidone (PVP); 100 mM MSA/2% benzyl alcohol/2% N-methylpyrrolidone (NMP); and, 100 mM MSA/10% ethanol/1% Poloxamer 188.
Several suitable formulations were developed for intravenous, subcutaneous and oral delivery of therapeutic levels of BCN057. These include 30 wt % Captisol (SBE-beta-CD) and 100 mM MSA at pH 4.1 (adjusted with 1.0 N NaOH).

For series [4], the system named is bone marrow hematopoietic stem cells (HSCs). As to the kind of experiment: Total body irradiation survival (hematopoietic suppression). Format: in vivo, C3H/HeN mice. Conditions: 7.75 Gy TBI, 30 day; male 50 mg/kg, female 25 mg/kg C3H/HeN mice. As for the experimental part:
FIG. 8A-C: (A) Kaplan Meier Plot of Male C3H/HeN mice 7.75Gy 30 Day TBI (n=30) 50 mg/kg BCN057. (B). Kaplan Meier Plot of Female C3H/HeN mice 7.75Gy 30 Day TBI (n=10) 25 mg/kg BCN057. (C) Cytokine Profile in Plasma Male C3H/HeN mice 7.75Gy TBI Day 8 receiving BCN057.
7.75 Gy radiation is used to ablate bone marrow hematopoietic stem cells (HSCs) in these strains of mice. […] Lethality from bone marrow suppression occurs in the 14-25 day region due to the life cycle of approximately 2 weeks for RBC and inability to replace them without HSCs
7.73 Gy radiation is used to ablate bone marrow HSCs in the C3H strain of mice.

For the next series, the system named is blood platelets. Briefly: Platelet count in normal mice. It is filed as in vivo, mouse. Conditions: eight days oral or subcutaneous, 75-800 mg/kg/day. Here is the method:
Normal mice were treated with BCN057 for eight days by oral administration or subcutaneous injection. Dose groups included 75 mg/kg/day, 200 mg/kg/day, 400 mg/kg/day, 500 mg/kg/day, and 800 mg/kg/day

For another series, the system named is plasma cytokines. Briefly: Mouse Cytokine panel ELISA Array of plasma after irradiation. It is filed as in vivo. The following applies: irradiated mice (7 G), 200 mg/kg SC Day 1 to 7, blood Day 8. Here is the method:
Mice were irradiated on Day 0. Animals were dosed with drug for 7 consecutive days (Day 1 to 7) at 200 mg/kg SC, with terminal blood collection on Day 8. Plasma from 3 mice was pooled for each condition Y axis represents relative absorbance units.
The plasma was tested with the Mouse Cytokine panel ELISA Array panel—by SIGNOSIS™

Series [5] has as its system cancer cell lines (leukemia, breast, CNS, colon, melanoma, non-small cell lung, ovarian, prostate, renal). Briefly: NCI cancer cell line growth screen (percent growth over 48 h, sulforhodamine B). Format: cell-based.
For a further series, the system named is hematopoietic system. As to the kind of experiment: Recovery of the hematopoietic system following 6 Gy irradiation. It is filed as in vivo. The following applies: C3H mice, s.c. at 24, 48, 72, 96, and 120 hrs. An excerpt: Recovery of the hematopoietic system following 6 Gy irradiation of C3H mice (n=4) with BCN057 treatment (s.c.) at 24, 48, 72, 96, and 120 hrs. RBC- red blood cells (M/uL), HB-hemoglobin (g/dL), and HCT-hematocrit (%). B: recovery of the hematopoietic system following 6 Gy irradiation of C3H mice (n=4) with BCN057 treatment (s.c.) at 24, 48, 72, 96, and 120 hrs. WBC-white blood cells, NE-neutrophils, LY-lymphocytes. C: platelet (PLT) recovery following 6 Gy irradiation of C3H mice (n=4) with BCN057 treatment (s.c.) at 24,48,72,96, and 120 hrs; p<0.05 with a 1-tail, Student t-test.

Structures are written as SMILES.

In the case of `[Cl-].[Li+]` [LiCl, reference compound], the luciferase activity result in series [1] is “significantly increased luciferase activity”.
Turning to `COc1ccc2cc(-c3nc4ccc(C)cn4c3NCc3ccco3)c(=O)[nH]c2c1` [BCN057, 3-(3((furan-2-ylmethyl)ammo)-6-methylimidazo[1,2-α]pyridine-2-yl)-6-methoxyquinolin-2(1H)-one], in series [2], the “Average Draize score Edema” value is 0, the “Average Draize score Edema Site 2” value stood at 0, the “Average Draize score Edema Site 3” value worked out at 0.5714 and the “Average Draize score Edema Site 4” value is 0. In series [2], the “Average Draize score Edema Site 5” value is recorded as 0.4286, the “Average Draize score Edema Site 6” value stood at 0, the “Average Draize score Erythema Site 2” value was 0.1429 and the “Average Draize score Erythema Site 3” value is reported as 1.286. In addition, in series [2], the “Average Draize score Erythema Site 4” value is recorded as 0.1429, the “Average Draize score Erythema Site 5” value was found to be 1.429 and the “Average Draize score Erythema Site 6” value is 0.4286. For the same molecule, in series [3] (30 wt % Captisol (SBE-beta-CD) and 100 mM MSA, up to pH 4.1), the solubility result was “excellent solubility”. Moreover, the solubility result in series [3] (addition of 100 mM lactic acid to the MSA mixtures) is reported as “improved solubility”. Besides, the “lethality from bone marrow suppression” value in series [4] was “sufficient to prevent lethality from bone marrow suppression”. Besides, the platelet production result in the series on blood platelets is listed as “induces platelet production in a dose dependent fashion”. Moreover, the plasma cytokine profile result in the series on plasma cytokines is recorded as “restores the cytokine profile to similar to that of the control”. Moreover, the “cancer cell growth vs control (no drug)” value in series [5] (10 uM, 48 h, Leukemia, prostate and kidney cancer) is given as “inhibitory”. Besides, the “cancer cell growth vs untreated control” value in series [5] (breast cancer, lung carcinoma, prostate, CNS, melanoma, ovarian, renal and colon cancer lines (FIG. 2)) was “susceptible”. Besides, the “hematopoietic recovery (RBC, HB, HCT, WBC, NE, LY, PLT)” value with hematopoietic system is “evidence of improving hematopoietic recovery”.

The values above are taken from US11229635B2, “Method of treating fibrosis” (BCN Biosciences L.L.C., priority 2016, dated 2022).
